# Source: patent US12497405B2, “Bicyclic heterocycle compounds methods of use thereof for the treatment of herpes viruses” (Merck Sharp & Dohme LLC, priority 2019, dated 2025)
# Where two headings read alike, the source gives them in different places.
# Assays:
# [1] = biological target: Human cytomegalovirus DNA polymerase (Human cytomegalovirus (strain AD169) (HHV-5) (Human herpesvirus 5), UniProt P08546); assay: CMV polymerase assay (AlphaLISA); assay type: biochemical; conditions: HCMV polymerase 0.2 nM, 30 min pre-incubation, 60 minute at 37° C.
# Procedure: (§1) Human cytomegalovirus and varicella zoster virus DNA polymerases were expressed via baculovirus vector in SF21 cells and purified. Heterodimeric nucleic acid substrate used in the herpesvirus polymerase reactions were generated by annealing a 59-mer template to a 17-mer digoxigenin-labeled primer. Polymerase (HCMV final concentration of 0.2 nM; VZV final concentration of 0.4 nM) was combined with an inhibitor compound or DMSO in assay buffer (10 mM HEPES, pH 7.5, 25 mM KCl, 25 mM NaCl, 5 mM MgCl2, 5% glycerol, 0.67 mg/ml bovine serum albumin, and 1 mM tris(2-carboxyethyl)phosphine)), and this mixture was pre-incubated for 30 minutes at room temperature in 384-well microtiter plates. The polymerization reaction was initiated by the addition of template/primer substrate (final concentration: 1.6 nM), and dNTPs (final concentration: 24 nM dCTP, 24 nMdGTP, 16 nM dATP, 16 nM dTTP, and 0.8 nM biotin-dUTP). After a 60 minute incubation period at 37° C., the reactions were terminated using quench buffer (25 mM HEPES pH 7.5, 100 mM NaCl, 0.25% Tween-20, 12 mM EDTA, and 1 mg/ml bovine serum albumin). Incorporation of biotinylated UTP was detected with 2.5-5 μg/mL anti-DIG AlphaLISA acceptor beads and 5-10 μg/mL streptavidin AlphaLISA donor beads (PerkinElmer). Compound effects were normalized to the window defined by the controls (DMSO only and pre-quenched wells), and were fit using a 4-parameter algorithm to report an IC50.
# [2] = biological target: varicella zoster virus DNA polymerase (Varicella-zoster virus (strain Dumas) (HHV-3) (Human herpesvirus 3), UniProt P09252); assay: VZV polymerase assay (AlphaLISA); assay type: biochemical; conditions: VZV polymerase 0.4 nM, 30 min pre-incubation, 60 minute at 37° C.
# Procedure: as §1
# HSV2 = assay: Viral qPCR assay, HSV2; assay type: cell-based; conditions: infected cells, viral genome copies by qPCR normalized to PPIA, read-out: HSV2 Cell EC50
# Procedure: (§2) MRC5 cells, Vero cells, and MeWo cells were obtained from ATCC, and were maintained at 37° C./5% CO2/90% relative humidity in Minimal Essential Medium with 10% fetal bovine serum, […] L-glutamine, 100 units/ml penicillin and 100 ug/ml streptomycin. Assay plates were prepared by dispensing compounds dissolved in DMSO into wells of 384 well collagen-coated plates using an ECHO acoustic dispenser. Each test compound was tested in a 10-point, serial 3-fold dilution. Controls included uninfected cells and infected cells treated only with DMSO. Assays were initiated by mixing selected cells, in suspension, with virus, and dispensing 50 μl/well infected cells to pre-plated compounds. Plates were incubated at 37° C./5% CO2/90% relative humidity for ˜72 hrs to permit genomic replication, and infected cells were lysed by the addition of an equal volume of lysis buffer (10 mM Tris-HCl, pH8, 50 mM KCl, 2 mM MgCl2, 0.45% NP-40, 0.45% Tween-20, and 100 µg/ml proteinase K). An aliquot of the lysate was then transferred to a 384-well PCR plate and incubated at 56° C. for 1 hour, and then at 95° C. for 10 minutes. Levels of the selected viral gene and of the cellular control, PPIA, were measured in separate 10 μl qPCR assays using TaqMan® Gene Expression Master Mix (Applied Biosystems), and an 7900HT Fast Real-Time PCR System with 384-Well Block Module. 7-point, serial 10-fold dilutions of a plasmid standard were run on each plate to generate a standard curve, and genome copies numbers were calculated by plotting experimental Ct onto linear regression of the standard curve. Viral genome copy numbers were normalized by cellular control copy number, and compound effects were normalized to the window defined by the controls. Calculated % effects were fit using a 4-parameter algorithm, and EC50 was reported.
# HSV1 = assay: Viral qPCR assay, HSV1; assay type: cell-based; conditions: infected cells, viral genome copies by qPCR normalized to PPIA, read-out: HSV1 Cell EC50
# Procedure: as §2
# CMV = assay: Viral qPCR assay, CMV; assay type: cell-based; conditions: infected cells, viral genome copies by qPCR normalized to PPIA, read-out: CMV Cell EC50
# Procedure: as §2
Compound,IC50 [1] [µM],IC50 [2] [µM],EC50 (HSV2; ~72 hrs) [µM],EC50 (HSV1; ~72 hrs) [µM],EC50 (CMV; ~72 hrs) [µM],"EC50 (HSV1; Human alphaherpesvirus 1, 72 h) [µM]","EC50 (CMV; Human betaherpesvirus 5, 72 h) [µM]","EC50 (HSV2; Human alphaherpesvirus 2, 72 h) [µM]"
"CC(c1ccc(Cl)cc1)n1ccc2ncc(O[C@H]3CCN4C(=O)OC[C@@H]4C3)cc2c1=O (single isomer, unassigned) [Example 30]",0.207,0.157,–,–,–,–,–,–
"CC(=O)N1CC[C@@H](Oc2cnc3ccn(Cc4ccc(Cl)cc4)c(=O)c3c2)C[C@H]1C (single isomer, unassigned) [Example 35]",0.066,0.082,–,–,–,–,–,–
COc1ncc(-c2cc3nc(C)n(Cc4ccc(Cl)cc4)c(=O)c3cc2O[C@H]2CCN3C(=O)OC[C@@H]3C2)cn1 [Example 5],0.015,–,0.085,0.131,0.107,–,–,–
CN1CCN(c2ccc3ccn(Cc4ccc(Cl)cc4)c(=O)c3c2)CC1 [Example 21],5.85,7.33,–,–,–,–,–,–
O=C1OC[C@@H]2C[C@@H](Oc3ccc4c(CO)cn(Cc5ccc(Cl)cc5)c(=O)c4c3)CCN12 [Example 29],0.021,0.013,–,–,–,0.256,0.24,–
C[C@@H]1CN(C2CCOCC2)CCN1c1ccc2ncn(Cc3ccc(Cl)cc3)c(=O)c2c1 [Example 43],9.83,4.96,–,–,–,–,–,–
C[C@@H]1CN(C)CCN1c1cc2c(=O)n(Cc3ccc(Cl)cc3)cnc2cc1-c1cnn(C(F)F)c1 [Example 50],0.545,0.422,–,–,–,–,–,–
C[C@@H]1CN(C)CCN1c1cc(CC(C)(C)O)c2ncn(Cc3ccc(Cl)cc3)c(=O)c2c1 [Example 55],0.109,0.139,–,–,–,–,–,–
COc1ccc(-c2cc3ncn(Cc4ccc(Cl)cc4)c(=O)c3cc2O[C@H]2CCN3C(=O)OC[C@@H]3C2)cn1 [Example 57],0.043,0.043,–,–,–,–,–,–
Cc1nc2cc(C#N)c(N3CCN(C)C[C@H]3C)cc2c(=O)n1Cc1ccc(C#N)cc1F [Example 63],0.235,–,–,–,–,3.15,0.498,3.71
Cc1nc2c(CC(C)(C)O)cc(O[C@H]3CCN4C(=O)OC[C@@H]4C3)cc2c(=O)n1Cc1ccc(Cl)cc1 [Example 67],0.022,0.053,–,–,–,–,–,–
O=C1OC[C@@H]2C[C@@H](Oc3cc4c(=O)n(Cc5ccc(Cl)cc5)c(CN5CCOCC5)nc4cc3-c3cnn(C(F)F)c3)CCN12 [Example 125],–,–,–,–,–,3.83,4.25,1.28
O=C1OC[C@@H]2C[C@@H](Oc3cc4c(=O)n(Cc5ccc(Cl)cc5)c(OC5CCOCC5)nc4cc3-c3cnn(C(F)F)c3)CCN12 [Example 126],–,–,–,–,–,0.372,0.205,0.14
Cc1nc2cc(-c3cccnn3)c(O[C@H]3CCN4C(=O)OC[C@@H]4C3)cc2c(=O)n1Cc1ccc(Cl)cc1 [Example 127],–,–,–,–,–,0.484,0.28,0.793
Cc1cnc(-c2cc3nc(C)n(Cc4ccc(Cl)cc4)c(=O)c3cc2O[C@H]2CCN3C(=O)OC[C@@H]3C2)cn1 [Example 128],–,–,–,–,–,0.217,0.114,0.131
O=C1OC[C@@H]2C[C@@H](Oc3cc4c(=O)n(Cc5ccc(Cl)cc5)c(CN5CCC5)nc4cc3-c3cnn(C(F)F)c3)CCN12 [Example 129],–,–,–,–,–,0.178,0.115,0.135
Cc1nc2cc(-c3ccncn3)c(O[C@H]3CCN4C(=O)OC[C@@H]4C3)cc2c(=O)n1Cc1ccc(Cl)cc1 [Example 130],–,–,–,–,–,0.167,0.19,0.287

Compound,IC50 [1] [µM],IC50 [2] [µM],EC50 (HSV2; ~72 hrs) [µM],EC50 (HSV1; ~72 hrs) [µM],EC50 (CMV; ~72 hrs) [µM],"EC50 (HSV1; Human alphaherpesvirus 1, 72 h) [µM]","EC50 (CMV; Human betaherpesvirus 5, 72 h) [µM]","EC50 (HSV2; Human alphaherpesvirus 2, 72 h) [µM]"
Cc1nccc(-c2cc3nc(C)n(Cc4ccc(Cl)cc4)c(=O)c3cc2O[C@H]2CCN3C(=O)OC[C@@H]3C2)n1 [Example 131],–,–,–,–,–,0.223,0.102,0.157
COc1cnnc(-c2cc3nc(C)n(Cc4ccc(Cl)cc4)c(=O)c3cc2O[C@H]2CCN3C(=O)OC[C@@H]3C2)c1 [Example 132],–,–,–,–,–,1.47,1.47,0.822
O=C1OC[C@@H]2C[C@@H](Oc3cc4c(=O)n(Cc5ccc(Cl)cc5)c(CNCC(F)(F)F)nc4cc3-c3cnn(C(F)F)c3)CCN12 [Example 133],–,–,–,–,–,0.238,0.167,0.106
O=C1OC[C@@H]2C[C@@H](Oc3cc4c(=O)n(Cc5ccc(Cl)cc5)c(OCCN5CCC5)nc4cc3-c3cnn(C(F)F)c3)CCN12 [Example 134],–,–,–,–,–,0.171,0.119,0.098
O=C1OC[C@@H]2C[C@@H](Oc3cc4c(=O)n(Cc5ccc(Cl)cc5)c(OCC5CC5)nc4cc3-c3cnn(C(F)F)c3)CCN12 [Example 135],–,–,–,–,–,0.799,0.939,0.649
Cc1cnnc(-c2cc3nc(C)n(Cc4ccc(Cl)cc4)c(=O)c3cc2O[C@H]2CCN3C(=O)OC[C@@H]3C2)c1 [Example 136],–,–,–,–,–,1.72,0.826,2.15
CC(C)(O)Cc1nc2cc(-c3cnn(C(F)F)c3)c(O[C@H]3CCN4C(=O)OC[C@@H]4C3)cc2c(=O)n1Cc1ccc(Cl)cc1 [Example 140],–,–,–,–,–,4.31,2.66,3.76
O=C1OC[C@@H]2C[C@@H](Oc3cc4c(=O)n(Cc5ccc(Cl)cc5)c(N5CCOCC5)nc4cc3-c3cnn(C(F)F)c3)CCN12 [Example 142],–,–,–,–,–,0.154,0.129,0.038
Cc1nc2cc(-c3cnc(N)nn3)c(O[C@H]3CCN4C(=O)OC[C@@H]4C3)cc2c(=O)n1Cc1ccc(Cl)cc1 [Example 144],–,–,–,–,–,0.189,0.137,0.319
O=C1OC[C@@H]2C[C@@H](Oc3cc4c(=O)n(Cc5ccc(Cl)cc5)c(N5CC(O)C5)nc4cc3-c3cnn(C(F)F)c3)CCN12 [Example 145],–,–,–,–,–,0.108,0.101,0.112
Cc1nc2cc(-c3nn4ccnc4s3)c(O[C@H]3CCN4C(=O)OC[C@@H]4C3)cc2c(=O)n1Cc1ccc(C#N)cc1 [Example 146],–,–,–,–,–,0.093,0.067,0.143
COc1nc2cc(-c3cnn(C(F)F)c3)c(O[C@H]3CCN4C(=O)OC[C@@H]4C3)cc2c(=O)n1Cc1ccc(Cl)cc1 [Example 148],–,–,–,–,–,0.213,0.275,0.078
O=C1OC[C@@H]2C[C@@H](Oc3cc4c(=O)n(Cc5ccc(Cl)cc5)c(O)nc4cc3-c3cnn(C(F)F)c3)CCN12 [Example 150],–,–,–,–,–,0.053,0.079,0.088
Cc1nc2cc(-c3cnc(C(C)(C)O)nc3)c(O[C@H]3CCN4C(=O)OC[C@@H]4C3)cc2c(=O)n1Cc1ccc(Cl)cc1 [Example 154],–,–,–,–,–,0.403,0.18,0.485
Cc1nc2cc(-c3cnn(C(F)F)c3)c(O[C@H]3CCN4C(=O)OC[C@@H]4C3)cc2c(=O)n1Cc1ccc(Cl)c(CO)c1 [Example 155],–,–,–,–,–,5.1,1.34,5.4
N[C@H](Cc1nc2cc(-c3cnn(C(F)F)c3)c(O[C@H]3CCN4C(=O)OC[C@@H]4C3)cc2c(=O)n1Cc1ccc(Cl)cc1)C(F)(F)F [Example 156],–,–,–,–,–,0.176,0.14,0.093
N[C@@H](Cc1nc2cc(-c3cnn(C(F)F)c3)c(O[C@H]3CCN4C(=O)OC[C@@H]4C3)cc2c(=O)n1Cc1ccc(Cl)cc1)C(F)(F)F [Example 157],–,–,–,–,–,0.176,0.17,0.081
